These results are taken from patent US10260079B2, “Method for producing ergothioneine by using soybean cake powder as nitrogen source in a seed medium” (TIANJIN INSTITUTE OF INDUSTRIAL BIOTECHNOLOGY, CHINESE …, priority 2014, dated 2019).

“And” between values parts separate entries of the source, which are not always exact repeats. Equal values may be shown once. Read-outs that look alike come from different tables or passages of the source.

This experiment deals with Pleurotus ostreatus mycelia CGMCC No. 6232. The experiment can be described thus: Shake-flask fermentation, total content of ergothioneine in the fermentation broth by HPLC. It counts as cell-based.
[1] abbreviates: Pleurotus ostreatus, CGMCC6232, 360 h, read-out: content of ergothioneine improved compared with control group.

In the case of `CC(C)C[C@H](N)C(=O)O` [leucine], the activation at 100 µg/mL (Pleurotus ostreatus, CGMCC6232, 360 h, leucine 0.1 g/L, read-out: content of ergothioneine improved compared with control group) stood at 11.9%. For the same compound, the “Content of ergothioneine in fermentation broth” value (“Content … in fermentation broth” below) by setting is: (leucine 0.02 g/L added in fermentation medium) 127 ± 1.23 mg/L; (leucine 0.05 g/L added in fermentation medium) 129.4 ± 2.17 mg/L; (leucine 0.1 g/L added in fermentation medium) 133.3 mg/L and 133.3 ± 2.5 mg/L; (leucine 0.25 g/L added in fermentation medium) 130.8 ± 2.46 mg/L; (leucine 0.5 g/L added in fermentation medium) 125.5 ± 1.36 mg/L.
Regarding `CC(=O)C(=O)O` [pyruvic acid], for the setting “Pleurotus ostreatus, CGMCC6232, 360 h, pyruvic acid 2.2 g/L, read-out: content of ergothioneine improved compared with control group”, the activation at 2200 µg/mL was found to be 5.9%. The “Content … in fermentation broth” value reads like this: (pyruvic acid 0.05 g/L added in fermentation medium) 127.4 ± 0.57 mg/L; (pyruvic acid 0.1 g/L added in fermentation medium) 128.6 ± 1.03 mg/L; (pyruvic acid 0.5 g/L added in fermentation medium) 130.4 ± 0.82 mg/L; (pyruvic acid 1.0 g/L added in fermentation medium) 131.9 ± 1.43 mg/L; (pyruvic acid 2.2 g/L added in fermentation medium) 132.7 mg/L and 132.7 ± 0.46 mg/L; (pyruvic acid 4.5 g/L added in fermentation medium) 128.7 ± 0.69 mg/L.
In the case of `O=C(O)CC(O)(CC(=O)O)C(=O)O` [citric acid], the activation at 400 µg/mL (Pleurotus ostreatus, CGMCC6232, 360 h, citric acid 0.4 g/L, read-out: content of ergothioneine improved compared with control group) was 10.4%. For the same compound, the “Content … in fermentation broth” value runs as follows: (citric acid 0.01 g/L added in fermentation medium) 126.9 ± 2.75 mg/L; (citric acid 0.05 g/L added in fermentation medium) 130.2 ± 1.31 mg/L; (citric acid 0.2 g/L added in fermentation medium) 135.4 ± 0.83 mg/L; (citric acid 0.4 g/L added in fermentation medium) 138.3 mg/L and 138.3 ± 2.49 mg/L; (citric acid 0.8 g/L added in fermentation medium) 128.4 ± 1.16 mg/L.
Take span 80: the “Content … in fermentation broth” value is 124.7 ± 2.59 mg/L (span 80 0.2 g/L added in fermentation medium); 156.3 ± 1.92 mg/L (span 80 0.5 g/L added in fermentation medium); 175.1 ± 2.83 mg/L (span 80 1 g/L added in fermentation medium); 196.5 mg/L and 196.5 ± 3.54 mg/L (span 80 3 g/L added in fermentation medium); 184.3 ± 3.7 mg/L (span 80 5 g/L added in fermentation medium); 129.6 ± 1.18 mg/L (span 80 10 g/L added in fermentation medium). Besides, the “content of ergothioneine improved compared with control group” value (“content … compared with control group” for short) (span 80 3 g/L) came to 69.7%.
Turning to `N=C(N)NCCC[C@H](N)C(=O)O` [arginine], the activation at 2000 µg/mL under setting [1] amounted to 12.7%.
As for `Cl.N` [NH4Cl], the “Content … in fermentation broth” value (NH4Cl 0.5 g/L added in fermentation medium) came to 127 ± 1.87 mg/L; the “Content … in fermentation broth” value (NH4Cl 1 g/L added in fermentation medium) turned out to be 133.7 ± 1.04 mg/L; the “Content … in fermentation broth” value (NH4Cl 2 g/L added in fermentation medium) came to 139.2 ± 1.55 mg/L; the “Content … in fermentation broth” value (NH4Cl 4 g/L added in fermentation medium) is 155.4 mg/L and 155.4 ± 2.68 mg/L; the “Content … in fermentation broth” value (NH4Cl 8 g/L added in fermentation medium) came to 141.8 ± 0.68 mg/L; the “Content … in fermentation broth” value (NH4Cl 12 g/L added in fermentation medium) is 128.6 ± 3.53 mg/L. In addition, the “content … compared with control group” value (NH4Cl 4 g/L) is 24.4%.
As for `N[C@@H](CC(=O)O)C(=O)O` [aspartic acid], the activation at 5000 µg/mL (Pleurotus ostreatus, CGMCC6232, 360 h, aspartic acid 5 g/L, read-out: content of ergothioneine improved compared with control group) came to 14.1%. Moreover, the “Content … in fermentation broth” value was 124.1 ± 3.07 mg/L (aspartic acid 0.05 g/L added in fermentation medium); 128 ± 2.51 mg/L (aspartic acid 0.5 g/L added in fermentation medium); 130.1 ± 4.28 mg/L (aspartic acid 1 g/L added in fermentation medium); 135.9 mg/L and 135.9 ± 3.64 mg/L (aspartic acid 5 g/L added in fermentation medium); 127.9 ± 2.59 mg/L (aspartic acid 7 g/L added in fermentation medium); 123.8 ± 2.88 mg/L (aspartic acid 9 g/L added in fermentation medium).
On to `N[C@@H](CS)C(=O)O` [cysteine], for which the activation at 15000 µM was determined as 56% (Pleurotus ostreatus, CGMCC6232, 360 h, cysteine 15 mmol/L added on the 6th day, read-out: content of ergothioneine improved compared with control group) and 46% (Pleurotus ostreatus, CGMCC6232, 360 h, cysteine 15 mmol/L, read-out: content of ergothioneine improved compared with control group). The “Content … in fermentation broth” value is, setting by setting: (cysteine 2 mmol/L added in fermentation medium) 124.8 ± 2.03 mg/L; (cysteine 9 mmol/L added in fermentation medium) 140.4 ± 1.83 mg/L; (cysteine 15 mmol/L added in fermentation medium) 175.5 mg/L and 175.5 ± 1.36 mg/L; (cysteine 15 mmol/L, timing for adding 0 d (before the fermentation)) 170.3 ± 1.92 mg/L; (cysteine 15 mmol/L, timing for adding 2 d) 177.4 ± 2.33 mg/L; (cysteine 15 mmol/L, timing for adding 4 d) 186.1 ± 1.67 mg/L. The “Content … in fermentation broth” value (cysteine 15 mmol/L, timing for adding 6 d) was 193.8 mg/L and 193.8 ± 4.16 mg/L; the “Content … in fermentation broth” value (cysteine 15 mmol/L, timing for adding 8 d) was 172.1 ± 1.73 mg/L; the “Content … in fermentation broth” value (cysteine 15 mmol/L, timing for adding 10 d) is reported as 156.5 ± 2.52 mg/L; the “Content … in fermentation broth” value (cysteine 25 mmol/L added in fermentation medium) is reported as 164.6 ± 4.31 mg/L; the “Content … in fermentation broth” value (cysteine 35 mmol/L added in fermentation medium) is recorded as 148.1 ± 2.74 mg/L; the “Content … in fermentation broth” value (cysteine 45 mmol/L added in fermentation medium) is 126.1 ± 2.99 mg/L.
Regarding `C[N+](C)(C)CC(=O)O` [betaine], under “Pleurotus ostreatus, CGMCC6232, 360 h, betaine 150 mmol/L, read-out: content of ergothioneine improved compared with control group”, the activation at 150000 µM turned out to be 22%. Moreover, the “Content … in fermentation broth” value runs as follows: (betaine 50 mmol/L added in fermentation medium) 125.3 ± 2.67 mg/L; (betaine 100 mmol/L added in fermentation medium) 130.1 ± 2.14 mg/L; (betaine 150 mmol/L added in fermentation medium) 146.6 mg/L and 146.6 ± 2.64 mg/L; (betaine 200 mmol/L added in fermentation medium) 129.9 ± 3.34 mg/L; (betaine 250 mmol/L added in fermentation medium) 124.8 ± 1.38 mg/L.
For `[Cl-].[Na+]` [NaCl], the “content … compared with control group” value amounted to 6.63%.
Consider `CSCC[C@H](N)C(=O)O` [methionine], for which the activation at 15000 µM runs as follows: (Pleurotus ostreatus, CGMCC6232, 360 h, methionine 15 mmol/L added on the 4th day, read-out: content of ergothioneine improved compared with control group) 63.1%; (Pleurotus ostreatus, CGMCC6232, 360 h, methionine 15 mmol/L, read-out: content of ergothioneine improved compared with control group) 49.4%. Further, the “Content … in fermentation broth” value (methionine 3 mmol/L added in fermentation medium) was found to be 127.3 ± 3.47 mg/L; the “Content … in fermentation broth” value (methionine 9 mmol/L added in fermentation medium) amounted to 154.8 ± 3.31 mg/L; the “Content … in fermentation broth” value (methionine 15 mmol/L added in fermentation medium) is 179.6 mg/L and 179.6 ± 4.17 mg/L; the “Content … in fermentation broth” value (methionine 15 mmol/L, timing for adding 0 d (before the fermentation)) is 179.3 ± 4.23 mg/L; the “Content … in fermentation broth” value (methionine 15 mmol/L, timing for adding 2 d) is given as 190.5 ± 2.84 mg/L; the “Content … in fermentation broth” value (methionine 15 mmol/L, timing for adding 4 d) is 202.6 mg/L and 202.6 ± 5.01 mg/L. The “Content … in fermentation broth” value is, setting by setting: (methionine 15 mmol/L, timing for adding 6 d) 174.9 ± 3.73 mg/L; (methionine 15 mmol/L, timing for adding 8 d) 160.3 ± 5.29 mg/L; (methionine 15 mmol/L, timing for adding 10 d) 149.3 ± 3.27 mg/L; (methionine 25 mmol/L added in fermentation medium) 168.5 ± 4.53 mg/L; (methionine 35 mmol/L added in fermentation medium) 153.7 ± 3.2 mg/L; (methionine 45 mmol/L added in fermentation medium) 126.9 ± 2.81 mg/L.
For `NCCCC[C@H](N)C(=O)O` [lysine], the “Content … in fermentation broth” value was 124.8 ± 0.72 mg/L and 125.6 ± 2.03 mg/L and 128.9 ± 2.12 mg/L and 133.7 ± 1.51 mg/L and 135.1 ± 0.66 mg/L and 126.3 ± 2.67 mg/L. Under setting [1], the activation at 5000 µg/mL was 13.4%.
NH4NO3: the “Content … in fermentation broth” value was 127.2 ± 1.18 mg/L and 134 ± 2.46 mg/L and 140.7 ± 3.74 mg/L and 148 ± 0.82 mg/L and 141.4 ± 1.98 mg/L and 129.7 ± 1.03 mg/L; the “content … compared with control group” value is listed as 18.5%.
In the case of `Cc1ncc(C[n+]2csc(CCO)c2C)c(N)n1` [VB1, vitamin B1], the “Content … in fermentation broth” value by setting is: (VB1 0.01 g/L added in fermentation medium) 122.7 ± 1.02 mg/L; (VB1 0.05 g/L added in fermentation medium) 128.8 ± 2.41 mg/L; (VB1 0.1 g/L added in fermentation medium) 132.2 mg/L and 132.2 ± 1.39 mg/L; (VB1 0.2 g/L added in fermentation medium) 129.6 ± 2.67 mg/L; (VB1 0.4 g/L added in fermentation medium) 127 ± 1.86 mg/L; (VB1 0.8 g/L added in fermentation medium) 123.3 ± 3.03 mg/L. For the setting “VB1 0.1 g/L”, the “content … compared with control group” value is on record as 11.2%.
`N[C@@H](CCC(=O)O)C(=O)O` [glutamic acid]: the activation at 10 µM (Pleurotus ostreatus, CGMCC6232, 360 h, glutamic acid 10 μmol/L, read-out: content of ergothioneine improved compared with control group) came out at 9.1%. Besides, the “Content … in fermentation broth” value is, setting by setting: (glutamic acid 1 μmol/L added in fermentation medium) 123.6 ± 0.92 mg/L; (glutamic acid 5 μmol/L added in fermentation medium) 128.8 ± 1.19 mg/L; (glutamic acid 10 μmol/L added in fermentation medium) 131.2 mg/L and 131.2 ± 2.62 mg/L; (glutamic acid 50 μmol/L added in fermentation medium) 124 ± 1.72 mg/L; (glutamic acid 100 μmol/L added in fermentation medium) 122.7 ± 1.63 mg/L.
